The values below come from paper PMC3799614, “Combinatorial Engineering of Dextransucrase Specificity” (PLoS ONE, 2013).

The test system of this experiment is T1, DSR-S vardel Δ4N (Thio-DSR-S vardel Δ4N-His).
T1 construct: gene dsrS; truncated form (variable region and part of C-terminal region deleted)
The experiment is described as follows: initial velocity, released fructose by HPLC. Conditions: 50 mM sodium acetate pH 5.2, 0.05 g/L CaCl2, 25 °C; 10-600 mM sucrose; fit with substrate inhibition. Format: biochemical, Leuconostoc mesenteroides. From the text: initial velocity, released fructose by HPLC on DSR-S vardel Δ4N (Thio-DSR-S vardel Δ4N-His)

In general, Km refers to the substrate concentration at which the rate is half of its maximum. Consider `OC[C@H]1O[C@@](CO)(O[C@H]2O[C@H](CO)[C@@H](O)[C@H](O)[C@H]2O)[C@@H](O)[C@@H]1O` [sucrose], for which the “Km” value was 115.8 mM.
